How the values were obtained:
Experiment in all cases: relative viability (nuclei count vs DMSO), 5 days (fraction); higher = more cells survive
201T = tested on: 201T
Outline: (§1)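 Lung cancer cell lines were seeded in 1536-well plates and dosed by pin tool the next day, with either a single drug or a fixed anchor-drug dose combined with five library-drug doses (not always all listed) spaced in √10 steps. Five days later, one step fixed the cells and stained their nuclei (final 0.05% Triton X-100, 1% formaldehyde, 1 ug/ml Hoechst), and nuclei were counted on 4× images. Relative viability is the nuclei count in treated wells divided by the count in vehicle wells, and each value is the median of duplicate plates.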

A-427 = tested on: A-427
Outline: as §1

BEN = tested on: BEN
Outline: as §1

COR-L 105 = tested on: COR-L 105
Outline: as §1

COR-L23 = tested on: COR-L23
Outline: as §1

EKVX = tested on: EKVX
Outline: as §1

HARA = tested on: HARA
Outline: as §1

HCC-15 = tested on: HCC-15
Outline: as §1

HCC-44 = tested on: HCC-44
Outline: as §1

HCC-827 = tested on: HCC-827
Outline: as §1

LK-2 = tested on: LK-2
Outline: as §1

NCI-H1437 = tested on: NCI-H1437
Outline: as §1

NCI-H1666 = tested on: NCI-H1666
Outline: as §1

NCI-H1792 = tested on: NCI-H1792
Outline: as §1

NCI-H1975 = tested on: NCI-H1975
Outline: as §1

NCI-H23 = tested on: NCI-H23
Outline: as §1

NCI-H358 = tested on: NCI-H358
Outline: as §1

NCI-H441 = tested on: NCI-H441
Outline: as §1

NCI-H596 = tested on: NCI-H596
Outline: as §1

NCI-H650 = tested on: NCI-H650
Outline: as §1

NCI-H838 = tested on: NCI-H838
Outline: as §1

SK-MES-1 = tested on: SK-MES-1
Outline: as §1

SW 900 = tested on: SW 900
Outline: as §1

Work on `O=C(O)c1ccc(-c2c[nH]c3ncc(-c4ccccc4)cc23)cc1C1CCCC1` + CCNC(=O)c1noc(-c2cc(C(C)C)c(O)cc2O)c1-c1ccc(CN2CCOCC2)cc1 [Luminespib] (partner 0.01 µM) yielded a relative viability (201T; first compound 0.04 µM) of 1.08, a relative viability (201T; first compound 0.1265 µM) of 1.04 and a relative viability (201T; first compound 0.4 µM) of 1.07. The relative viability (201T; first compound 1.265 µM) was 0.987, the relative viability (A-427; first compound 0.04 µM) was 0.956 and the relative viability (A-427; first compound 0.1265 µM) was 1.01. It also gave a relative viability (A-427; first compound 0.4 µM) of 0.647, a relative viability (A-427; first compound 1.265 µM) of 0.577 and a relative viability (BEN; first compound 0.04 µM) of 0.569. For the same compound, the relative viability (BEN; first compound 0.1265 µM) was 0.32, the relative viability (BEN; first compound 0.4 µM) was 0.284 and the relative viability (BEN; first compound 1.265 µM) was 0.306. The relative viability (COR-L 105; first compound 0.04 µM) was 0.933, the relative viability (COR-L 105; first compound 0.1265 µM) was 0.76 and the relative viability (COR-L 105; first compound 0.4 µM) was 0.762. It also gave a relative viability (COR-L 105; first compound 1.265 µM) of 0.773, a relative viability (COR-L23; first compound 0.04 µM) of 0.656 and a relative viability (COR-L23; first compound 0.1265 µM) of 0.742. For the same compound, the relative viability (COR-L23; first compound 0.4 µM) was 0.612, the relative viability (COR-L23; first compound 1.265 µM) was 0.407 and the relative viability (EKVX; first compound 0.04 µM) was 0.885. For the same compound, the relative viability (EKVX; first compound 0.1265 µM) was 0.92, the relative viability (EKVX; first compound 0.4 µM) was 0.931 and the relative viability (EKVX; first compound 1.265 µM) was 0.615. For the same compound, the relative viability (HARA; first compound 0.04 µM) was 0.767, the relative viability (HARA; first compound 0.1265 µM) was 0.748 and the relative viability (HARA; first compound 0.4 µM) was 0.141. For the same compound, the relative viability (HARA; first compound 1.265 µM) was 0.418, the relative viability (HCC-15; first compound 0.04 µM) was 0.266 and the relative viability (HCC-15; first compound 0.1265 µM) was 0.384. It also gave a relative viability (HCC-15; first compound 0.4 µM) of 0.265, a relative viability (HCC-15; first compound 1.265 µM) of 0.192 and a relative viability (HCC-44; first compound 0.04 µM) of 1.08. It also gave a relative viability (HCC-44; first compound 0.1265 µM) of 1.44, a relative viability (HCC-44; first compound 0.4 µM) of 0.868 and a relative viability (HCC-44; first compound 1.265 µM) of 0.448. The relative viability (HCC-827; first compound 0.04 µM) was 0.602, the relative viability (HCC-827; first compound 0.1265 µM) was 0.793 and the relative viability (HCC-827; first compound 0.4 µM) was 0.413. It also gave a relative viability (HCC-827; first compound 1.265 µM) of 0.485, a relative viability (LK-2; first compound 0.04 µM) of 0.157 and a relative viability (LK-2; first compound 0.1265 µM) of 0.187. The relative viability (LK-2; first compound 0.4 µM) was 0.161, the relative viability (LK-2; first compound 1.265 µM) was 0.168 and the relative viability (NCI-H1437; first compound 0.04 µM) was 1.09. The relative viability (NCI-H1437; first compound 0.1265 µM) was 1.07, the relative viability (NCI-H1437; first compound 0.4 µM) was 0.925 and the relative viability (NCI-H1437; first compound 1.265 µM) was 0.603. For the same compound, the relative viability (NCI-H1666; first compound 0.04 µM) was 0.976, the relative viability (NCI-H1666; first compound 0.1265 µM) was 0.97 and the relative viability (NCI-H1666; first compound 0.4 µM) was 0.959. It also gave a relative viability (NCI-H1666; first compound 1.265 µM) of 0.579, a relative viability (NCI-H1792; first compound 0.1265 µM) of 0.477 and a relative viability (NCI-H1792; first compound 0.4 µM) of 0.351. It also gave a relative viability (NCI-H1792; first compound 1.265 µM) of 0.519, a relative viability (NCI-H1975; first compound 0.04 µM) of 0.131 and a relative viability (NCI-H1975; first compound 0.1265 µM) of 0.302. The relative viability (NCI-H1975; first compound 0.4 µM) was 0.199, the relative viability (NCI-H1975; first compound 1.265 µM) was 0.338 and the relative viability (NCI-H23; first compound 0.04 µM) was 0.224. The relative viability (NCI-H23; first compound 0.1265 µM) was 0.217, the relative viability (NCI-H23; first compound 0.4 µM) was 0.217 and the relative viability (NCI-H23; first compound 1.265 µM) was 0.2. The relative viability (NCI-H358; first compound 0.04 µM) was 0.45, the relative viability (NCI-H358; first compound 0.1265 µM) was 0.192 and the relative viability (NCI-H358; first compound 0.4 µM) was 0.249. For the same compound, the relative viability (NCI-H358; first compound 1.265 µM) was 0.165, the relative viability (NCI-H441; first compound 0.04 µM) was 0.332 and the relative viability (NCI-H441; first compound 0.1265 µM) was 0.431. For the same compound, the relative viability (NCI-H441; first compound 0.4 µM) was 0.266, the relative viability (NCI-H441; first compound 1.265 µM) was 0.298 and the relative viability (NCI-H596; first compound 0.04 µM) was 1. For the same compound, the relative viability (NCI-H596; first compound 0.1265 µM) was 1.03, the relative viability (NCI-H596; first compound 0.4 µM) was 0.909 and the relative viability (NCI-H596; first compound 1.265 µM) was 0.973. The relative viability (NCI-H650; first compound 0.04 µM) was 0.866, the relative viability (NCI-H650; first compound 0.1265 µM) was 0.861 and the relative viability (NCI-H650; first compound 0.4 µM) was 0.757. It also gave a relative viability (NCI-H650; first compound 1.265 µM) of 0.293, a relative viability (NCI-H838; first compound 0.04 µM) of 0.315 and a relative viability (NCI-H838; first compound 0.1265 µM) of 0.266. For the same compound, the relative viability (NCI-H838; first compound 0.4 µM) was 0.26, the relative viability (NCI-H838; first compound 1.265 µM) was 0.287 and the relative viability (SK-MES-1; first compound 0.04 µM) was 0.81. It also gave a relative viability (SK-MES-1; first compound 0.1265 µM) of 0.973, a relative viability (SK-MES-1; first compound 0.4 µM) of 0.596 and a relative viability (SK-MES-1; first compound 1.265 µM) of 0.35. For the same compound, the relative viability (SW 900; first compound 0.04 µM) was 0.185, the relative viability (SW 900; first compound 0.1265 µM) was 0.171 and the relative viability (SW 900; first compound 0.4 µM) was 0.175. It also gave a relative viability (SW 900; first compound 1.265 µM) of 0.156.
